Measurements from PubChem BioAssay AID651630 (Sanford-Burnham Center for Chemical Genomics, 2012).
pIC50: −log10 of the molar value. Activity calls are given as the source filed them.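 The calls were made as follows: active = lipid-stain IC50 at or below a set limit, with nuclear-stain toxicity IC50 at least five times higher; inactive = the rest.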

How the values were obtained:
DAPI = assay: triacylglycerol accumulation inhibitor potency, dose response, cell-based, panel, Nile Red and DAPI fluorescence, H9c2 (AID 651630); settings: H9c2 cells, DAPI nuclear fluorescence (cytotoxicity counter-readout), oleic acid;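 also: cells exposed to compound overnight before fixation and staining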
TAG = assay: as above; settings: H9c2 cells, Nile Red TAG fluorescence, oleic acid

| SMILES | IC50 (TAG; mean of runs) | pIC50 (TAG; run 1) | pIC50 (TAG; run 2) | pIC50 (TAG; mean of runs) | IC50 cytotoxicity (DAPI nuclear signal decrease) (DAPI; mean of runs) | IC50 cytotoxicity (DAPI nuclear signal decrease) (DAPI; run 1) | IC50 cytotoxicity (DAPI nuclear signal decrease) (DAPI; run 2) |
| --- | --- | --- | --- | --- | --- | --- | --- |
| CC1(C)Cc2c(C#N)c(SCC(=O)c3ccccc3)nc(N3CCOCC3)c2CS1 | 19.3 µM (inactive) | 4.71 | 4.72 | – | > 25 µM (inactive) | > 25 µM | > 25 µM |
| CC1(C(=O)Nc2ccc3c(c2)OCO3)Cc2c(-c3cccc(C(N)=O)c3)ccnc2O1 (stereo not drawn) | – | < 4.60 | 4.72 | – | > 25 µM (inactive) | > 25 µM | > 25 µM |
| O=C(NCC(c1ccc(F)cc1)N1CCOCC1)c1ccc([N+](=O)[O-])o1 (stereo not drawn) | > 25 µM (inactive) | < 4.60 | < 4.60 | – | 19.7 µM (inactive) | 19.7 µM | 19.6 µM |
| Cc1cc(NC(=O)c2ccccc2F)n(-c2nc3ccccc3[nH]2)n1 | 16.8 µM (inactive) | 4.78 | 4.77 | – | > 25 µM (inactive) | > 25 µM | > 25 µM |
| COc1ccc(-c2cc(NC=O)c3ncc(-c4cc(OC)c(OC)c(OC)c4)n3c2)c(OC)c1 | > 25 µM (inactive) | < 4.60 | < 4.60 | – | > 25 µM (inactive) | > 25 µM | > 25 µM |
| Cc1ccc(-c2nn3c(C)nnc3c3ccccc23)cc1S(=O)(=O)NC(C)c1ccccc1 (stereo not drawn) | 19.7 µM (inactive) | 4.73 | 4.69 | – | > 25 µM (inactive) | > 25 µM | > 25 µM |
| COc1cccc(Cn2c3ccc(NC(=O)CCc4ccc(F)cc4)cc3c(=O)n2C)c1 | – | 4.68 | < 4.60 | – | > 25 µM (inactive) | > 25 µM | > 25 µM |
| Cc1onc(-c2ccc(Cl)cc2Cl)c1-c1csc(N/N=C/c2ccccc2)n1 | > 25 µM (inactive) | < 4.60 | < 4.60 | – | > 25 µM (inactive) | > 25 µM | > 25 µM |

Now those with a higher pIC50 (TAG; run 1), led by results:

| IC50 (TAG; mean of runs) | pIC50 (TAG; run 1) | pIC50 (TAG; run 2) | pIC50 (TAG; mean of runs) | SMILES | IC50 cytotoxicity (DAPI nuclear signal decrease) (DAPI; mean of runs) | IC50 cytotoxicity (DAPI nuclear signal decrease) (DAPI; run 1) | IC50 cytotoxicity (DAPI nuclear signal decrease) (DAPI; run 2) |
| --- | --- | --- | --- | --- | --- | --- | --- |
| – | 4.98 | 5.10 | 5.04 | CC1(c2ccccc2)CC(C)(C)N(C(=O)c2cc([N+](=O)[O-])cc([N+](=O)[O-])c2)c2ccccc21 (stereo not drawn) | > 25 µM (inactive) | > 25 µM | > 25 µM |
| – | 5.51 | 5.53 | 5.52 | COc1cc(/C=C2\Oc3ccc(C#Cc4ccc(O)cc4)cc3C2=O)cc(OC)c1 | 4.72 µM (inactive) | 5.07 µM | 4.36 µM |
| – | 5.31 | 4.99 | 5.12 | COc1ccc(NC(=O)c2nc(C)c(C3(C)CC(c4ccccc4)=NO3)s2)cc1 (stereo not drawn) | > 25 µM (inactive) | > 25 µM | > 25 µM |
| 20 µM (inactive) | 4.80 | 4.62 | – | CCN1C(=O)[C@H]2[C@@H](c3ccc(-c4cccc(Cl)c4)cc3)N[C@@](Cc3ccccc3)(C(=O)OC)[C@H]2C1=O | > 25 µM (inactive) | > 25 µM | > 25 µM |
| – | 4.91 | 5.07 | 4.98 | CCN1CCN(Cc2ccc(NC(=O)c3cc(NC(=O)c4cncc(-c5cccs5)c4)cc(OC)c3)cc2C(F)(F)F)CC1 | > 25 µM (inactive) | > 25 µM | > 25 µM |
| – | 4.91 | < 4.60 | – | COc1cc2c(c(OC)c1OC)-c1ccc(OC)c(=O)cc1C(NC(=O)c1ccccc1)CC2 (stereo not drawn) | > 25 µM (inactive) | > 25 µM | > 25 µM |
| – | 4.94 | 5.06 | 5.00 | CCCCc1ccc(N=N/C(C(=O)Nc2cc(OC)c(NC(C)=O)cc2OC)=C(/C)O)cc1 | > 25 µM (inactive) | > 25 µM | > 25 µM |
| – | 5.05 | 4.95 | 5.00 | Cn1c(N)c(C(=O)COC(=O)c2ccc([N+](=O)[O-])o2)c(=O)n(C)c1=O | 19.1 µM (inactive) | 18.4 µM | 19.8 µM |
